Measured values reported in the NIST ThermoML archive (doi:10.1016/j.fluid.2015.06.034).
± gives the expanded uncertainty stated by the source.

Test: wn = mass fraction of the nth substance listed
Conditions: Liquid, Vibrating tube method, w1 = 0.45

Compound `CN(CCO)CCO` [N-methyldiethanolamine] + O has a mass density (303.15 K) of 1037.2 ± 5 kg/m3, a mass density (323.15 K) of 1024.8 ± 5 kg/m3 and a mass density (343.15 K) of 1011.5 ± 5 kg/m3. It also gave a mass density (363.15 K) of 996.4 ± 5 kg/m3.
